Source: patent publication US20040229246A1, “Diagnostic markers for therapeutic treatment” (Can-Fite Biopharam Ltd., priority 2002, published 2004)

Legend:
A3AR = assay: Northern blot analysis of A3AR mRNA in B16-F10 melanoma cells; assay type: cell-based; details: B16-F10 melanoma cells treated with IB-MECA
Protocol: Total RNA was isolated from B16-F10 melanoma cells treated with IB-MECA, utilizing Tri-reagent (Sigma, Saint Louis). The samples were then subjected twice to phenol:chloroform extraction and washed with chloroform. RNA was precipitated with sodium acetate/ethanol following washing with ethanol, then denatured, separated (25 μg per lane) in 1.1% formaldehyde agarose gels and transferred to Hybond-N membrane. The 390 bp EcoRI fragment from A3AR cDNA clone of mouse (TAA3I.S), kindly supplied by Dr Kathia Ravid, was prepared by random-primed synthesis. Probes were used in RNA blot analysis at a hybridization temperature of 42° C. in the presence of 50% formamide.

[1] = tested on: HCT-116 human colon carcinoma; assay: HCT-116 human colon carcinoma development in mice; assay type: in vivo; details: mice inoculated with HCT-116, 10 μg/kg orally daily
Protocol: Colon Carcinoma: Nude/BalbC male, 10-week-old mice were used. HCT-116 Human colon carcinoma cells (1.2×10^6 cells in 100 μL PBS) were inoculated subcutaneously to the flank of the mice. Treatment was initiated when tumors reached a size of ˜150 mm^3. Each group contained 10 mice, the control group treated with vehicle only, while the test group was administered daily orally with IB-MECA (10 μg/kg).
After 32 days the mice were sacrificed, tumor lesions were excise and protein was extracted for measurements as described above. Tumor size was evaluated by measuring with a caliber width (W) and length (L) and calculated according to the above formula.

[2] = tested on: PKA, PKB/Akt, GSK-3β, β-catenin, cyclin D1, c-myc, NF-κB; assay: Western blot of cell growth regulatory proteins in B16-F10 melanoma tumor lesions; assay type: in vivo, mice
Protocol: To detect the level of expression of the A3AR proteins Western blot analysis was performed. Cells were incubated in the presence and absence of IB-MECA (10 nM), MRS1523 (10 nM), Forskolin (50 nM), 8 Br cAMP (100 μM), Cycloheximide 20 μg/ml or MG 132 (20 nM) for different time periods at 37° C. Cells were then rinsed with ice-cold PBS and transferred to ice-cold lysis buffer (TNN buffer, 50 mM Tris buffer pH=7.5, 150 mM NaCl, NP 40). In the experiment examining the effect of trypsin on A3AR expression, cells were incubated with 0.5 ml of 0.25% trypsin for 5 minutes. The trypsinized cells were washed again with ice-cold PBS, harvested by centrifugation and subjected to lysis in TNN buffer. Cell debris was removed by centrifugation for 10 minutes, at 7500 xg. The supernatant was utilized for Western Blot analysis. Protein concentrations were determined using the Bio-Rad protein assay dye reagent. Equal amounts of the sample (50 μg) were separated by SDS-PAGE, using 12% polyacrylamide gels. The resolved proteins were then electroblotted onto nitrocellulose membranes (Schleicher & Schuell, Keene, NH, USA). Membranes were blocked with 1% bovine serum albumin and incubated with the desired primary antibody (dilution 1:1000) for 24 hours at 4° C. Blots were then washed and incubated with a secondary antibody for 1 hour at room temperature. Bands were recorded using BCIP/NBT color development kit (Promega, Madison, W1, USA). Data presented in the different figures are representative of at least three different experiments.
Melanoma: C57BL/6J, male mice (Harlan Laboratories, Jerusalem, Israel) aged 2 months, weighing an average of 25 g were used. B16-F10 (2.5×105) melanoma cells were subcutaneously (s.c.) injected to the flank of the mice. IB-MECA at a dose of 100 μg/kg body weight was administered orally once daily, starting 24 hours after tumor cells' inoculation. The control group was treated daily, orally, with the vehicle only. Mice were sacrificed after 15 days, tumor lesions were excise and protein was extracted for measurements as described above. The tumor size (width (W) and length (L)) was measured with a caliber and calculated according to the following formula: Tumor Size =(W)2xL/2. Each group contained 15 mice and the study was repeated 3 times.

CNC(=O)[C@H]1O[C@@H](n2cnc3c(NCc4cccc(I)c4)ncnc32)[C@H](O)[C@@H]1O [IB-MECA, 1-deoxy-1-[6[[(3-iodophenyl)methyl]amino]-9H-purine-9-yl]-N-methyl-β-D-ribofura-nuronaminde]
A3AR mRNA expression level (A3AR): increase
development of colon carcinoma (tumor size) [1]: markedly suppressed
NF-κB level [2]: down-regulated
PKA level [2]: decreased
PKB/Akt level [2]: decreased
c-myc level [2]: down-regulated
cyclin D1 level [2]: down-regulated
total GSK-3β level [2]: increase
β-catenin level [2]: decrease
